Assay results as given in US8048862B2, “Macrocyclic inhibitors of hepatitis C virus replication” (priority 2008, dated 2011).
Read-outs that look alike come from different tables or passages of the source.

Legend:
NS3/NS4 complexes = NS3/NS4 complexes (Hepatitis C virus genotype 1a, UniProt P27958); experiment: NS3/NS4 inhibition activity (IC50); format: biochemical
Summary of the method: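 NS3/NS4 complexes were formed and compound inhibitory concentrations determined at ambient temperature (23 °C). The buffer contained 50 mM Tris-HCl pH 7.5, 15% glycerol, 0.6 mM LDAO, 25 μM NS4A peptide and 10 mM DTT.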

hepatitis C replicon = hepatitis C replicon EC50; format: cell-based; details: Hepatitis C virus, hepatitis C replicon, read-out: EC50
Source text: NS3-NS4 inhibition activity can be determined using known assay methods.

NS3/NS4 complexes, sequence (P27958 1027-1657): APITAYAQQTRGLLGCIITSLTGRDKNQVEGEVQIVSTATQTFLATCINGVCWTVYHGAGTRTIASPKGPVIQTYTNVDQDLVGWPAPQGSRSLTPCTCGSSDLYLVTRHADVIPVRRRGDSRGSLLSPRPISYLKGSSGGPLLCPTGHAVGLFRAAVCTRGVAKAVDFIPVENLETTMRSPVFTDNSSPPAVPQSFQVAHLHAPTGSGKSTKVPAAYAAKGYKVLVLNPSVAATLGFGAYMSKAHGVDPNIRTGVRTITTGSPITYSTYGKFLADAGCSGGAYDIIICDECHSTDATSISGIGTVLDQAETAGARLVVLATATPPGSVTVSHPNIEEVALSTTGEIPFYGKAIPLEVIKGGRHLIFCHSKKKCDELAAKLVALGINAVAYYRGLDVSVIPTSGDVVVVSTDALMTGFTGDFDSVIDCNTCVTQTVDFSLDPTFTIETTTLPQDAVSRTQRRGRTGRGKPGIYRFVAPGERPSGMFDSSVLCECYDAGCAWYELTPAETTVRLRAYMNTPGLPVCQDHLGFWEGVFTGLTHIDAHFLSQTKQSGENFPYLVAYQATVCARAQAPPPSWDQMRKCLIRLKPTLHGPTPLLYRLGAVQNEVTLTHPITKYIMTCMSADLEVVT
NS3/NS4 complexes, sequence (P27958 1658-1711): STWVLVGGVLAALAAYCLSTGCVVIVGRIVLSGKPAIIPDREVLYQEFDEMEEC

Row | SMILES | IC50 (NS3/NS4 complexes; Table 2, read-out: IC50) | EC50 (hepatitis C replicon; Table 2) | IC50 (NS3/NS4 complexes; IC50, Table 3) | EC50 (hepatitis C replicon; Table 3) | IC50 (NS3/NS4 complexes; Table 3, read-out: IC50)
1 | COc1ccc2c(O[C@@H]3C[C@H]4C(=O)N[C@]5(C(=O)NS(=O)(=O)C6(C)CC6)C[C@H]5/C=C\CCCCC[C@H](Nc5cccc(C)c5)C(=O)N4C3)cc(-c3nc(C(C)C)cs3)nc2c1C [Compound 477] | < 10 nM | < 10 nM |  |  | 
2 | COc1cccc(N[C@H]2CCCCC/C=C\[C@@H]3C[C@@]3(C(=O)NS(=O)(=O)C3(C)CC3)NC(=O)[C@@H]3C[C@@H](Oc4cc(-c5nc(C(C)C)cs5)nc5c(C)c(OC)ccc45)CN3C2=O)c1 [Compound 478] | < 10 nM | 75 to 500 nM |  |  | 
3 | COc1ccc2c(O[C@@H]3C[C@H]4C(=O)N[C@]5(C(=O)NS(=O)(=O)C6(C)CC6)C[C@H]5/C=C\CCCCC[C@H](Nc5cccc(C(=O)N(C)C)c5)C(=O)N4C3)cc(-c3nc(C(C)C)cs3)nc2c1C [Compound 479] | < 10 nM | < 10 nM |  |  | 
4 | COc1ccc2c(O[C@@H]3C[C@H]4C(=O)N[C@]5(C(=O)NS(=O)(=O)C6(C)CC6)C[C@H]5/C=C\CCCCC[C@H](Nc5cc(F)c(F)c(F)c5)C(=O)N4C3)cc(-c3nc(C(C)C)cs3)nc2c1C [Compound 480] | < 10 nM | 10 to 75 nM |  |  | 
5 | COc1ccc2c(O[C@@H]3C[C@H]4C(=O)N[C@]5(C(=O)NS(=O)(=O)C6(C)CC6)C[C@H]5/C=C\CCCCC[C@H](Nc5ccc(C#N)cc5)C(=O)N4C3)cc(-c3nc(C(C)C)cs3)nc2c1C [Compound 481] | < 10 nM | < 10 nM |  |  | 
6 | COc1ccc2c(O[C@@H]3C[C@H]4C(=O)N[C@]5(C(=O)NS(=O)(=O)C6(C)CC6)C[C@H]5/C=C\CCCCC[C@H](Nc5cc(C)cc(F)c5)C(=O)N4C3)cc(-c3nc(C(C)C)cs3)nc2c1C [Compound 482] | < 10 nM | < 10 nM |  |  | 
7 | CC1(S(=O)(=O)NC(=O)[C@@]23C[C@H]2/C=C\CCCCC[C@H](Nc2ccccc2)C(=O)N2C[C@H](Oc4nc5ccccc5nc4-c4cccs4)C[C@H]2C(=O)N3)CC1 [Compound 486] | < 10 nM | 10 to 75 nM |  |  | 
8 | COc1ccc2c(O[C@@H]3C[C@H]4C(=O)N[C@]5(C(=O)NS(=O)(=O)C6(C)CC6)C[C@H]5/C=C\CCCCC[C@H](Nc5ccccc5F)C(=O)N4C3)cc(-c3nc(C(C)C)cs3)nc2c1C [Compound 492] | < 10 nM | 10 to 75 nM |  |  | 
9 | CC(C)(C)OC(=O)N[C@H]1CCCCC/C=C\[C@@H]2C[C@@]2(C(=O)NS(=O)(=O)C2(C)CC2)NC(=O)[C@@H]2C[C@@H](Oc3nc4ccccc4n3COCC[Si](C)(C)C)CN2C1=O [Compound 701] |  |  | < 10 nM | 10 to 100 nM | 
10 | CC(C)(C)OC(=O)N[C@H]1CCCCC/C=C\[C@@H]2C[C@@]2(C(=O)O)NC(=O)[C@@H]2C[C@@H](Oc3nc4ccccc4s3)CN2C1=O [Compound 1001] |  |  |  | > 100 nM | 10 to 100 nM
11 | CCn1c(O[C@@H]2C[C@H]3C(=O)N[C@]4(C(=O)NS(=O)(=O)C5CC5)C[C@H]4/C=C\CCCCC[C@H](NC(=O)OC(C)(C)C)C(=O)N3C2)nc2ccccc21 [Compound 1007] |  |  |  | < 10 nM | < 10 nM
12 | CC(C)(C)OC(=O)N[C@H]1CCCCC/C=C\[C@@H]2C[C@@]2(C(=O)NS(=O)(=O)C2(C)CC2)NC(=O)[C@@H]2C[C@@H](Oc3nc4ccccc4s3)CN2C1=O [Compound 1008] |  |  |  | < 10 nM | < 10 nM
13 | CC(C)(C)OC(=O)N[C@H]1CCCCC/C=C\[C@@H]2C[C@@]2(C(=O)NS(=O)(=O)C2CC2)NC(=O)[C@@H]2C[C@@H](Oc3nc4ccccc4s3)CN2C1=O [Compound 1009] |  |  |  | < 10 nM | < 10 nM
14 | CC(C)(C)OC(=O)N[C@H]1CCCCC/C=C\[C@@H]2C[C@@]2(C(=O)NS(=O)(=O)C2CC2)NC(=O)[C@@H]2C[C@@H](Oc3nc4ccc(F)cc4s3)CN2C1=O [Compound 1010] |  |  |  | 10 to 100 nM | < 10 nM
15 | CC(C)(C)OC(=O)N[C@H]1CCCCC/C=C\[C@@H]2C[C@@]2(C(=O)NS(=O)(=O)C2(C)CC2)NC(=O)[C@@H]2C[C@@H](Oc3nc4ccc(F)cc4s3)CN2C1=O [Compound 1011] |  |  |  | 10 to 100 nM | < 10 nM
16 | CC(C)(C)OC(=O)N[C@H]1CCCCC/C=C\[C@@H]2C[C@@]2(C(=O)NS(=O)(=O)C2CC2)NC(=O)[C@@H]2C[C@@H](Oc3nc4ccc(Br)cc4s3)CN2C1=O [Compound 1012] |  |  |  | < 10 nM | < 10 nM
17 | CC(C)(C)OC(=O)N[C@H]1CCCCC/C=C\[C@@H]2C[C@@]2(C(=O)NS(=O)(=O)C2(C)CC2)NC(=O)[C@@H]2C[C@@H](Oc3nc4ccc(Br)cc4s3)CN2C1=O [Compound 1013] |  |  |  | < 10 nM | < 10 nM
18 | Cc1ccc2nc(O[C@@H]3C[C@H]4C(=O)N[C@]5(C(=O)NS(=O)(=O)C6(C)CC6)C[C@H]5/C=C\CCCCC[C@H](NC(=O)OC(C)(C)C)C(=O)N4C3)sc2c1 [Compound 1014] |  |  |  | < 10 nM | < 10 nM
19 | Cc1ccc2nc(O[C@@H]3C[C@H]4C(=O)N[C@]5(C(=O)NS(=O)(=O)C6CC6)C[C@H]5/C=C\CCCCC[C@H](NC(=O)OC(C)(C)C)C(=O)N4C3)sc2c1 [Compound 1015] |  |  |  | < 10 nM | < 10 nM
20 | COc1ccc2nc(O[C@@H]3C[C@H]4C(=O)N[C@]5(C(=O)NS(=O)(=O)C6(C)CC6)C[C@H]5/C=C\CCCCC[C@H](NC(=O)OC(C)(C)C)C(=O)N4C3)sc2c1 [Compound 1016] |  |  |  | 10 to 100 nM | < 10 nM

Row | SMILES | IC50 (NS3/NS4 complexes; Table 2, read-out: IC50) | EC50 (hepatitis C replicon; Table 2) | IC50 (NS3/NS4 complexes; IC50, Table 3) | EC50 (hepatitis C replicon; Table 3) | IC50 (NS3/NS4 complexes; Table 3, read-out: IC50)
21 | CC(C)(C)OC(=O)N[C@H]1CCCCC/C=C\[C@@H]2C[C@@]2(C(=O)NS(=O)(=O)C2CC2)NC(=O)[C@@H]2C[C@@H](Oc3nc4ccc(Cl)cc4s3)CN2C1=O [Compound 1018] |  |  |  | 10 to 100 nM | < 10 nM
22 | CC(C)(C)OC(=O)N[C@H]1CCCCC/C=C\[C@@H]2C[C@@]2(C(=O)NOc2ccccc2)NC(=O)[C@@H]2C[C@@H](Oc3nc4ccccc4o3)CN2C1=O [Compound 1027] |  |  |  | > 100 nM | > 100 nM
23 | CC(C)(C)OC(=O)N[C@H]1CCCCC/C=C\[C@@H]2C[C@@]2(C(=O)NS(=O)(=O)C2(C)CC2)NC(=O)[C@@H]2C[C@@H](Oc3nc4ccccc4o3)CN2C1=O [Compound 1028] |  |  |  | 10 to 100 nM | < 10 nM
24 | CC(C)(C)OC(=O)N[C@H]1CCCCC/C=C\[C@@H]2C[C@@]2(C(=O)NS(=O)(=O)C2CC2)NC(=O)[C@@H]2C[C@@H](Oc3nc4ccccc4o3)CN2C1=O [Compound 1029] |  |  |  | 10 to 100 nM | < 10 nM
25 | Cc1ccc2oc(O[C@@H]3C[C@H]4C(=O)N[C@]5(C(=O)NS(=O)(=O)C6CC6)C[C@H]5/C=C\CCCCC[C@H](NC(=O)OC(C)(C)C)C(=O)N4C3)nc2c1 [Compound 1030] |  |  |  | 10 to 100 nM | < 10 nM
26 | Cc1cccc2oc(O[C@@H]3C[C@H]4C(=O)N[C@]5(C(=O)NS(=O)(=O)C6CC6)C[C@H]5/C=C\CCCCC[C@H](NC(=O)OC(C)(C)C)C(=O)N4C3)nc12 [Compound 1031] |  |  |  | 10 to 100 nM | < 10 nM
27 | CC(C)(C)OC(=O)N[C@H]1CCCCC/C=C\[C@@H]2C[C@@]2(C(=O)NS(=O)(=O)C2CC2)NC(=O)[C@@H]2C[C@@H](Oc3nc4cc(Cl)ccc4o3)CN2C1=O [Compound 1032] |  |  |  | > 100 nM | < 10 nM
28 | Cc1ccc2nc(O[C@@H]3C[C@H]4C(=O)N[C@]5(C(=O)NS(=O)(=O)C6CC6)C[C@H]5/C=C\CCCCC[C@H](NC(=O)OC(C)(C)C)C(=O)N4C3)oc2c1 [Compound 1033] |  |  |  | 10 to 100 nM | < 10 nM
29 | CC(C)(C)OC(=O)N[C@H]1CCCCC/C=C\[C@@H]2C[C@@]2(C(=O)NS(=O)(=O)C2CC2)NC(=O)[C@@H]2C[C@@H](Oc3nc4cc(F)ccc4o3)CN2C1=O [Compound 1034] |  |  |  | 10 to 100 nM | < 10 nM
30 | COc1ccc2oc(O[C@@H]3C[C@H]4C(=O)N[C@]5(C(=O)NS(=O)(=O)C6CC6)C[C@H]5/C=C\CCCCC[C@H](NC(=O)OC(C)(C)C)C(=O)N4C3)nc2c1 [Compound 1035] |  |  |  | > 100 nM | < 10 nM
31 | CC(C)(C)OC(=O)N[C@H]1CCCCC/C=C\[C@@H]2C[C@@]2(C(=O)NS(=O)(=O)C2CC2)NC(=O)[C@@H]2C[C@@H](Oc3nc4ccc(Cl)cc4o3)CN2C1=O [Compound 1036] |  |  |  | > 100 nM | < 10 nM
32 | CC(C)(C)OC(=O)N[C@H]1CCCCC/C=C\[C@@H]2C[C@@]2(C(=O)NS(=O)(=O)C2CC2)NC(=O)[C@@H]2C[C@@H](Oc3nc4ccc(F)cc4o3)CN2C1=O [Compound 1037] |  |  |  | > 100 nM | < 10 nM
33 | CC(C)(C)OC(=O)N[C@H]1CCCCC/C=C\[C@@H]2C[C@@]2(C(=O)NS(=O)(=O)C2CC2)NC(=O)[C@@H]2C[C@@H](Oc3nc4cccc(F)c4o3)CN2C1=O [Compound 1038] |  |  |  | 10 to 100 nM | < 10 nM
34 | Cc1cccc2nc(O[C@@H]3C[C@H]4C(=O)N[C@]5(C(=O)NS(=O)(=O)C6CC6)C[C@H]5/C=C\CCCCC[C@H](NC(=O)OC(C)(C)C)C(=O)N4C3)sc12 [Compound 1040] |  |  |  | < 10 nM | < 10 nM
35 | CC(C)(C)OC(=O)N[C@H]1CCCCC/C=C\[C@@H]2C[C@@]2(C(=O)NS(=O)(=O)C2(C)CC2)NC(=O)[C@@H]2C[C@@H](Oc3nc4cc(Cl)ccc4o3)CN2C1=O [Compound 1046] |  |  |  | > 100 nM | < 10 nM
36 | CCn1c(O[C@@H]2C[C@H]3C(=O)N[C@]4(C(=O)NS(=O)(=O)C5(C)CC5)C[C@H]4/C=C\CCCCC[C@H](NC(=O)OC(C)(C)C)C(=O)N3C2)nc2ccccc21 [Compound 1048] |  |  |  | < 10 nM | < 10 nM
37 | CC(C)(C)OC(=O)N[C@H]1CCCCC/C=C\[C@@H]2C[C@@]2(C(=O)NS(=O)(=O)C2(C)CC2)NC(=O)[C@@H]2C[C@@H](Oc3nc4ccccc4n3Cc3ccccc3)CN2C1=O [Compound 1050] |  |  |  | 10 to 100 nM | < 10 nM
38 | CC(C)(C)OC(=O)N[C@H]1CCCCC/C=C\[C@@H]2C[C@@]2(C(=O)NS(=O)(=O)C2CC2)NC(=O)[C@@H]2C[C@@H](Oc3nc4ccccc4n3Cc3ccccc3)CN2C1=O [Compound 1051] |  |  |  | 10 to 100 nM | < 10 nM
39 | CC(C)(C)OC(=O)N[C@H]1CCCCC/C=C\[C@@H]2C[C@@]2(C(=O)NCCC(=O)NCc2ccccc2)NC(=O)[C@@H]2C[C@@H](OC(=O)N3Cc4cccc(F)c4C3)CN2C1=O [Compound 1052] |  |  |  | > 100 nM | > 100 nM
